Measurements reported in PMC8850458, “The AUTOTAC chemical biology platform for targeted protein degradation via the autophagy-lysosome system” (Nature Communications, 2022).
Several values for one entry are separate records, joined by “and”; a condition that tells them apart may be missing. Equal entries are not always repeated. Where two headings read alike, the source gives them in different places.

Key:
[1] = biological target: high-molecular weight tau aggregates (Homo sapiens, UniProt P10636, P618L); assay: In vivo oligomerization (aggregation) assay in SH-SY5Y-tauP301L cells; assay type: cell-based; details: okadaic acid 15 nM, compound 0.1 μM, 24 h
Procedure: HEK293T cells were transfected with P301L-tau-EGFP plasmid using Lipofectamine 2000. HEK293T and SHYSY5Y-tau cells were treated with p62-ZZ ligands for 24 h. After incubation on ice for 30 min for supernatant collection, the cells were lysed by a cycle of freezing/thawing and centrifuged at 13,000 g for 10 min. Protein concentration was determined using the Pierce BCA Protein Assay Kit (Thermo Fisher Scientific). Non-reducing 4X LDS sample buffer was added to sample lysate, followed by boiling at 100 °C for 10 min and samples were loaded on a 3% stacking and 8% separating SDS-PAGE. Immunoblotting assays were carried out using anti-GFP antibody (Sigma) to visualize the oligomeric complexes of Tau.

[2] = biological target: tauP301L insoluble and soluble species (Homo sapiens, UniProt P10636, P618L); assay: Triton X-100-based insoluble/soluble fractionation; assay type: cell-based; details: 2.5 μM 24 h, HCQ 10 μM
Procedure: SH-SY5Y-tau BiFC cells were treated with PBA-1105, PBA and YTK-1105 to determine the degraded fraction of Tau. Using a cell lysis buffer (20 mM HEPES pH 7.9, 0.2 M KCl, 1 mM MgCl2, 1 mM EGTA, 1% Triton X-100, 10% glycerol, protease inhibitor and phosphatase inhibitor), the cells were collected and incubated on ice for 15 min, followed by centrifugation at 13,000 g for 10 min at 4 °C. The supernatant was collected as the soluble fraction and the pellet as the insoluble fraction. Using PBS, the insoluble fraction was washed 4 times and lysed with a SDS-detergent lysis buffer (20 mM HEPES pH 7.9, 0.2 M KCl, 1 mM MgCl2, 1 mM EGTA, 1% Triton x-100, 1% SDS, 10% glycerol, protease inhibitors and phosphatase inhibitors). 5X Laemmli sample buffer was added to the soluble and insoluble samples and boiled for 10 min at 100 °C and loaded on a SDS-PAGE gel.

[3] = biological target: T1, tau oligomers (htauP301L-BiFC bodies) and phosphorylated tau-BiFC (Homo sapiens, UniProt P10636, P618L); assay: Immunohistochemistry of BiFC and AT8 fluorescence in brains of hTauP301L-BiFC mice; assay type: in vivo; details: for Sudan black B AVG CA1: control 32.0843; for Sudan black B AVG Cortex: control 98.7415; for AT8 AVG CA1 / AT8 AVG % CA1 / AT8 AVG % Cortex / AT8 AVG Cortex / AT8 CA1, per animal / AT8 Cortex, per animal: Fig. 6l; for AT8 AVG CA1: control 95.3926; for AT8 AVG Cortex: control 109.457; for AT8 CA1, per animal: control AVG 95.3926; for AT8 Cortex, per animal: control AVG 109.457
T1 construct: from tissue; host or cells: brain of 9-month-old hTauP301L-BiFC transgenic mice (C57BL/6)

tauP301L = tauP301L (Homo sapiens, UniProt P10636, P618L); assay: RIPA insoluble/soluble fractionation of brains of hTauP301L-BiFC mice, human tau; details: for AVG (%) Insoluble hTau / AVG (%) Soluble hTau: control 100
[4] = biological target: T2, estrogen receptor beta (ERβ) (Homo sapiens, UniProt Q92731); assay: Western blot degradation of ERβ; assay type: cell-based; details: for ERβ band normalized to control, AVG % / ERβ band (PHTPP) normalized to GAPDH and to control, percentage: 293T; for ERβ band normalized to control, AVG % / ERβ band (PHTPP) normalized to GAPDH and to control, percentage / DC50: 24 h; for ERβ band (PHTPP) normalized to GAPDH and to control, percentage: single experiments
T2 construct: Targeted autophagic degradation of endogenous oncoproteins by AUTOTAC; endogenous in cells; host or cells: HEK293T, ACHN, MCF7
Procedure: Adherent cells were washed with phosphate-buffered saline (PBS) and cell pellets were lysed in SDS-based sample buffer (277.8 mM Tris-HCI, pH 6.8, 4.4% LDS, 44.4% (v/v) glycerol) containing beta-mercaptoethanol. Alternatively, cell pellets or protein supernatants were lysed in 5X Laemmli sample buffer. Whole-cell lysates were separated using SDS-PAGE, and transferred onto polyvinyllidene difluoride membranes at 100 V for 2 h at 4 °C. The membrane was incubated with a blocking solution consisting 4% skim milk in PBS solution for 30 min at room temperature and incubated with primary antibodies overnight, followed by incubation with host-specific HRP-conjugated secondary antibodies (1:10000 dilution). For signal detection, the membrane was developed with a mixture of ECL solution (Thermo Fisher Scientific) using X-ray films. Densitometry of developed bands was measured and analyzed with ImageJ (NIH, Bethesda).

[5] = WST-based cell viability assay in ACHN cells; details: human, ACHN cells; for viability at 0.01 µM / viability at 0.1 µM / viability at 1 µM / viability at 10 µM / viability at 50 µM / viability at 100 µM: ACHN
ACHN cells = assay: WST-based cell viability assay in ACHN cells; details: for WST assay raw reading / WST assay viability relative to con = 100: ACHN, duplicates
[6] = duplicates, read-out: WST assay viability relative to con = 100
[7] = read-out: WST assay viability, AVG %

Sequence of tauP301L (P10636 1-441 isoform P10636-8 P301L): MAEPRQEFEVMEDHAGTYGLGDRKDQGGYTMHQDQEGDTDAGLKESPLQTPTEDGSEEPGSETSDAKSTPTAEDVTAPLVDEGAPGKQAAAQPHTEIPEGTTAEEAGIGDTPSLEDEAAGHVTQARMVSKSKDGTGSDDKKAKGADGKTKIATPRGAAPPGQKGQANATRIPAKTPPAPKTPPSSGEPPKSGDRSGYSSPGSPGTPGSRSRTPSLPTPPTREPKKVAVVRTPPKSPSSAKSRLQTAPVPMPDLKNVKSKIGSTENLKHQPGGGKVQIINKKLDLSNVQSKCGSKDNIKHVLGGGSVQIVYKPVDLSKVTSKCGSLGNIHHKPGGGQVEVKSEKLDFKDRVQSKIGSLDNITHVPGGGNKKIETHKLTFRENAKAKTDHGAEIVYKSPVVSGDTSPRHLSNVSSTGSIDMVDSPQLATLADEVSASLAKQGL
T1 sequence (P10636 1-441 isoform P10636-8 P301L): as above
T2 sequence (Q92731 whole entry): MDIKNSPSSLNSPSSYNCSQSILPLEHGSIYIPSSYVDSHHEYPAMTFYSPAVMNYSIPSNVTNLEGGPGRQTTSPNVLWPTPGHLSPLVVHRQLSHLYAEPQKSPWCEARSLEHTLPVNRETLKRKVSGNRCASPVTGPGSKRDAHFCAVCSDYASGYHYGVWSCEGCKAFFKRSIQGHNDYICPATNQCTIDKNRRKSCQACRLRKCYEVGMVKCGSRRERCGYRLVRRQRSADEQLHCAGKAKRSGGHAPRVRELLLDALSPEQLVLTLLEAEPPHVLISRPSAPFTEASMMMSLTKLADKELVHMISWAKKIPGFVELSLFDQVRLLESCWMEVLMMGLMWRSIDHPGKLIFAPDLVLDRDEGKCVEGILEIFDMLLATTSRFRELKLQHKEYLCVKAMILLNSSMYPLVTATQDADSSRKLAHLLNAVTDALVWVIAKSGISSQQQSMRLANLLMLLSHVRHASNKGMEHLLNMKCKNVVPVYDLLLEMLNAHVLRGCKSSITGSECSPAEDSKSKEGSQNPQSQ
Sequence of tauP301L insoluble and soluble species (P10636 1-441 isoform P10636-8 P301L): as the sequence (P10636 1-441 isoform P10636-8 P301L) above
Sequence of high-molecular weight tau aggregates (P10636 1-441 isoform P10636-8 P301L): as above

Compound: O=C(CCCc1ccccc1)NCCOCCOCCOCCNCc1ccc(OCc2ccccc2)c(OCc2ccccc2)c1 [PBA-1105]
- high-molecular weight tau aggregates [1]: effectively eliminated high-molecular weight tau aggregates
- autophagic degradation of detergent-soluble and -insoluble tauP301L [2]: promoted autophagic degradation of not only detergent-soluble but critically also -insoluble species
- Sudan black B AVG CA1 ([3]; Fig. 6k, 20 mg/kg): 24
- Sudan black B AVG Cortex ([3]; Fig. 6k, 20 mg/kg): 61.9321
- Sudan black B AVG CA1 ([3]; Fig. 6k, 50 mg/kg): 34.5914
- Sudan black B AVG Cortex ([3]; Fig. 6k, 50 mg/kg): 38.2621
- Sudan black B AVG % CA1 ([3]; Fig. 6k, 50 mg/kg, control 100): 107.814%
- AT8 AVG CA1 ([3]; 20 mg/kg): 71.2628
- AT8 AVG % CA1 ([3]; 20 mg/kg, control 100): 74.7047%
- AT8 AVG % Cortex ([3]; 20 mg/kg, control 100): 77.6283%
- AT8 AVG Cortex ([3]; 20 mg/kg): 84.9698
- AT8 CA1, per animal ([3]; 20 mg/kg): 75.563 and 74.477 and 82.816 and 64.806 and 58.652
- AT8 Cortex, per animal ([3]; 20 mg/kg): 72.808 and 80.823 and 112.523 and 115.092 and 43.603
- AT8 AVG CA1 ([3]; 50 mg/kg): 65.5443
- AT8 AVG % CA1 ([3]; 50 mg/kg, control 100): 68.7101%
- AT8 AVG % Cortex ([3]; 50 mg/kg, control 100): 62.2901%
- AT8 AVG Cortex ([3]; 50 mg/kg): 68.181
- AT8 CA1, per animal ([3]; 50 mg/kg): 51.948 and 69.287 and 60.135 and 88.15 and 58.518 and 65.228
- AT8 Cortex, per animal ([3]; 50 mg/kg): 68.316 and 68.839 and 67.094 and 66.047 and 57.905 and 80.885
- soluble bodies of phosphorylated tau-BiFC (AT8 staining) ([3]; cortex and CA1 region): marked eradication
- total tau oligomers (BiFC) in cortex and CA1 region of hippocampus ([3]; hTauP301L-BiFC mice, dosage-dependent): drastic reduction
- AVG (%) Insoluble hTau (tauP301L; 20 mg/kg): 43.8995%
- AVG (%) Soluble hTau (tauP301L; 20 mg/kg): 87.1538%
- AVG (%) Insoluble hTau (tauP301L; 50 mg/kg): 10.5836%
- AVG (%) Soluble hTau (tauP301L; 50 mg/kg): 66.7118%
- soluble tau species in brain (tauP301L; hTauP301L-BiFC mice, i.p. 20 or 50 mg/kg): little if any reduction
- detergent-insoluble tauP301L in brain (tauP301L; hTauP301L-BiFC mice, i.p. 20 or 50 mg/kg, three times per week for one month): marked clearance

Compound: O[C@H](CNCCOCCOCCOc1ccc(-c2c(-c3ccccc3)nn3c(C(F)(F)F)cc(C(F)(F)F)nc23)cc1)COc1ccc(OCc2ccccc2)c(OCCCc2ccccc2)c1 [PHTPP-1304]
- ERβ band normalized to control, AVG % ([4]; 1nM): 52.5102%
- ERβ band (PHTPP) normalized to GAPDH and to control, percentage ([4]; 1nM): 58.6192% and 52.1272% and 46.7843%
- ERβ band normalized to control, AVG % ([4]; 10nM): 17.5552%
- ERβ band (PHTPP) normalized to GAPDH and to control, percentage ([4]; 10nM): 19.5411% and 16.0071% and 17.1174%
- ERβ band normalized to control, AVG % ([4]; 100nM): 4.912%
- ERβ band (PHTPP) normalized to GAPDH and to control, percentage ([4]; 100nM): 9.1943% and 5.039% and 0.5025%
- ERβ band normalized to control, AVG % ([4]; 1uM): 9.556%
- ERβ band normalized to control, AVG % ([4]; 2.5uM): 4.237%
- ERβ band (PHTPP) normalized to GAPDH and to control, percentage ([4]; 2.5uM): 4.5765% and 5.279% and 2.856%
- DC50 ([4]; ACHN renal carcinoma cells, read-out: DC50 of ERβ): < 100 nM
- Dmax, 24 hr (concentration of maximal clearance at the 24 h mark) of ERβ ([4]; HEK293T cells): 10 to 100 nM
- DC50 ([4]; HEK293T cells, read-out: DC50 (half-degrading concentration) of ERβ): ~2 nM and 1.48 nM
- degradation of ERβ under RNA interference of either p62 or ATG5 ([4]; HEK293T, 0.1 μM 24 h, siRNA 40 nM 48 h): completely abolished
- persistence of ERβ degradation post-washout ([4]; MCF7, MG132 1 μM, compound 500 nM 24 h, then washout): at least 8 h
- DC50 and Dmax values of ERβ degradation ([4]; MCF7 cells, proteasomal inhibition (MG132 1 μM, 24 h)): subnanomolar
- DC50 ([4]; MCF-7 breast cancer cells, read-out: DC50 of ERβ): < 100 nM
- viability at 0.01 µM [5, 6]: 101%
- viability at 0.01 µM [5, 7]: 99.6%
- viability at 0.1 µM [5, 6]: 102%
- viability at 0.1 µM [5, 7]: 101%
- viability at 1 µM [5, 6]: 96.2%
- viability at 1 µM [5, 7]: 96.2%
- viability at 10 µM [5, 6]: 2.13%
- viability at 10 µM [5, 7]: 2.08%
- viability at 50 µM [5, 6]: 12.3%
- viability at 50 µM [5, 7]: 11.6%
- viability at 100 µM [5, 6]: 14.8%
- viability at 100 µM [5, 7]: 15.8%
- IC50 ([5]; WST-based viability assay, read-out: cytotoxicity IC50): 3300 nM
- higher cytotoxicity than p62-binding ligand or TBL (ACHN cells; ACHN cells): ~ 5 fold
- WST assay raw reading (ACHN cells; 0.01uM): 1.001 and 0.98
- WST assay viability relative to con = 100 (ACHN cells; 0.01uM): 98.3465
- WST assay raw reading (ACHN cells; 0.1uM): 1.009 and 1.004
- WST assay viability relative to con = 100 (ACHN cells; 0.1uM): 101.115
- WST assay raw reading (ACHN cells; 1uM): 0.961 and 0.962
- WST assay viability relative to con = 100 (ACHN cells; 1uM): 96.2699
- WST assay raw reading (ACHN cells; 10uM): 0.146 and 0.145
- WST assay viability relative to con = 100 (ACHN cells; 10uM): 2.019
- WST assay raw reading (ACHN cells; 50uM): 0.234 and 0.222
- WST assay viability relative to con = 100 (ACHN cells; 50uM): 10.9017
- WST assay raw reading (ACHN cells; 100uM): 0.256 and 0.273
- WST assay viability relative to con = 100 (ACHN cells; 100uM): 16.7852
